Broadly, the IC50 is the concentration needed to halve the response being measured.

A short description of test [1]: Cytotoxicity against human HCT8 cells assessed as growth inhibition rate at 0.1 to 100 umol/L after 96 hrs by MTT assay. The format is functional, HCT-8.
Test [2] can be described thus: Cytotoxicity against human HCT8 cells assessed as growth inhibition rate after 96 hrs by MTT assay. The format is functional, cell-based. Conditions: HCT-8, 96 h. Background: Tetrazolium dyes change colour on reduction, which living cells bring about.
The subject of test [3] is A549. Kind of test: Cytotoxicity against human A549 cells assessed as growth inhibition rate at 0.1 to 100 umol/L after 96 hrs by MTT assay. The format is functional.
For test [4], the system named is A549. Kind of test: Cytotoxicity against human A549 cells assessed as growth inhibition rate after 96 hrs by MTT assay. The format is functional, cell-based. Conditions: A549, 96 h.
The nature of test [5]: Cytotoxicity against human Bel7402 cells assessed as growth inhibition rate at 0.1 to 100 umol/L after 96 hrs by MTT assay. The format is functional, Bel-7402.
The nature of test [6]: Cytotoxicity against human Bel7402 cells assessed as growth inhibition rate after 96 hrs by MTT assay. In kind it is functional, cell-based. Conditions: Bel-7402, 96 h.
Test [7] in a line: Cytotoxicity against human C33A cells assessed as growth inhibition rate at 0.1 to 100 umol/L after 96 hrs by MTT assay. In kind it is functional, C-33-A.
Test [8] can be described thus: Cytotoxicity against human C33A cells assessed as growth inhibition rate after 96 hrs by MTT assay. The format is functional, cell-based. Conditions: C-33-A.
Test [9] has as its system HCT-8. The test is described as follows: Ratio of 5-fluorouracil IC50 to compound IC50 for human HCT8 cells assessed as growth inhibition rate after 96 hrs by MTT assay. In kind it is functional.
Test [10] concerns A549. Kind of test: Ratio of 5-fluorouracil IC50 to compound IC50 for human A549 cells assessed as growth inhibition rate after 96 hrs by MTT assay. In kind it is functional.
Test [11] deals with Bel-7402. The test is described as follows: Ratio of 5-fluorouracil IC50 to compound IC50 for human Bel7402 cells assessed as growth inhibition rate after 96 hrs by MTT assay. In kind it is functional.
The subject of test [12] is C-33-A. Kind of test: Ratio of 5-fluorouracil IC50 to compound IC50 for human C33A cells assessed as growth inhibition rate after 96 hrs by MTT assay. The format is functional.
A short description of test [13]: Cytotoxicity against human BGC823 cells assessed as growth inhibition rate after 96 hrs by MTT assay. In kind it is functional, cell-based. The note with it: BGC-823, 96 h.

Regarding `CCCCCCCCCCCc1c2[n+](cc3c4c(ccc13)OCO4)CCc1cc3c(cc1-2)OCO3.[Cl-]`, the “growth inhibition (GI)” value in test [1] is recorded as 92.7%; in test [3], 94.28%; in [5] it was 91.22%; in test [7], 86.84%. Moreover, the IC50 in [2] came to 0.82 µM; in test [4], 0.61 µM; in test [6], 1.22 µM; in [8] it was 1.57 µM. Besides, the “Ratio IC50” value is recorded as 4 in [9], 11 in [10], 2 in [11] and 3 in test [12].

`Fc1cccc(Cc2c3[n+](cc4c5c(ccc24)OCO5)CCc2cc4c(cc2-3)OCO4)c1.[Cl-]`: the “growth inhibition (GI)” value stood at 4.59% in [1], 6.81% in test [3] and 4.06% in [5]. The IC50 in [2], in test [4], in [6] and in [13] was greater than 10 µM throughout.

Take `Fc1ccccc1Cc1c2[n+](cc3c4c(ccc13)OCO4)CCc1cc3c(cc1-2)OCO3.[Cl-]`: the “growth inhibition (GI)” value in test [1] came out at 26.26%; in test [3], 18.8%; in test [5] it was 6.94%. Besides, the IC50 in test [2], in test [4], in [6] and in [13] was greater than 10 µM in each case.

Take `Fc1ccc(Cc2c3[n+](cc4c5c(ccc24)OCO5)CCc2cc4c(cc2-3)OCO4)c(F)c1.[Cl-]`: the entries for the “growth inhibition (GI)” value in [1], in test [3] and in [5] were 1.19%, 5.86% and 5.45%, respectively. Moreover, the IC50 in test [2], in test [4], in test [6] and in [13] was greater than 10 µM each time.

Turning to `FC(F)(F)c1cccc(Cc2c3[n+](cc4c5c(ccc24)OCO5)CCc2cc4c(cc2-3)OCO4)c1.[Cl-]`, the “growth inhibition (GI)” value is -1.37% in [1], 7.78% in test [3] and 5.98% in test [5]. Moreover, the IC50 in test [2], in [4], in test [6] and in [13] was greater than 10 µM in each case.

Regarding `FC(F)(F)c1cc(Cc2c3[n+](cc4c5c(ccc24)OCO5)CCc2cc4c(cc2-3)OCO4)cc(C(F)(F)F)c1.[Cl-]`, the “growth inhibition (GI)” value in test [1] is on record as -5.72%; in [3], 3.45%; in test [5], 3.61%. For the same compound, the IC50 in test [2], in test [4], in test [6] and in [13] was greater than 10 µM throughout.
